Measurements from paper PMC7352759, “S(+)-(2E)-N-(2-Hydroxypropyl)-3-Phenylprop-2-Enamide (KM-568): A Novel Cinnamamide Derivative with Anticonvulsant Activity in Animal Models of Seizures and Epilepsy” (International Journal of Molecular Sciences, 2020).

Tests used:
CF-1 mice = assay: Chemoconvulsant test, bicuculine; type: in vivo; settings: 0.25 h
Description: Initially, compound KM-568 was administered i.p. at 130.0 mg/kg in two groups of CF-1 mice (n = 8). After 0.25 h, the subcutaneous injections of either bicuculine (2.7 mg/kg) or picrotoxin (2.5 mg/kg) were performed. The, animals were placed in isolation cages and observed for 30 min (in a bicuculine assay) or 45 min (in a picrotoxin assay) for the presence or absence of an episode of a clonic seizure.

rats = assay: Pilocarpine-induced status epilepticus model; type: in vivo
Description: Compound KM-568 was tested in rats at the doses in the range 200–400 mg/kg i.p. in a pilocarpine-induced status epilepticus model. After administration of pilocarpine, at the time point when a convulsive effect of at least level 3 in the Racine scale was noted (time 0 h) and 0.5 h afterwards (time 0.5 h), KM-568 was administered intraperitoneally at a certain dose.
Pilocarpine was administered intraperitoneally into rats at the dose of 50 mg/kg. Each animal was being observed. The time point when the convulsive effect at the level of at least 3 in the Racine scale was noted (time 0 h), and, 0.5 h (time 0.5 h) afterwards, KM-568 was administered.

[1] = Ames microplate format (MPF) assay, TA100; settings: Salmonella typhimurium
Excerpt: (§1) The Ames microplate format (MPF) mutagenicity assay (Xenometrix, Allschwil, Switzerland) was used to test KM-568 mutagenicity. Growth, exposure, and indicator media, positive control chemicals, and four Salmonella typhimurium strains TA98, TA100, TA1535 and TA1537 were included in the kit. TA100 and TA1535 strains detect base substitution mutations, whereas TA98 and TA1537 indicate frameshift mutations. The strains of bacteria included in a kit are in compliance with the Organization for Economic Cooperation and Development (OECD) 471 Guideline for Testing of Chemicals.
(§2) The assay is a liquid microplate modification of the traditional Salmonella test. During the procedure, bacteria are exposed to different concentrations of a test compound for 90 min in a medium containing sufficient histidine to support cell divisions. Then, the cultures are diluted in a pH indicator medium lacking histidine and aliquoted into 48 wells of a 384-well plate. Within 2 days, bacteria that have undergone reversion to amino acid prototrophy will form colonies. Products of bacteria metabolism reduce pH of the medium, changing the color of wells from purple to yellow.
The test procedure provided by Xenometrix and described in detail elsewhere was followed. Bacterial strains were grown overnight (14–16 h) in exposure medium in a shaker incubator and then exposed to KM-568 in 24-well plates for 90 min at 37 °C with agitation. Final KM-568 concentrations in the assay were 0.1, 0.2, and 0.5 mM. After preincubation, the cultures were diluted in the indicator medium and the contents of each 24-well culture were transferred to 48 wells on a 384-well plate and incubated further for 48 h at 37 °C without agitation. After the exposure, the number of wells containing bacteria was scored for yellow wells. […]
The fold increase of revertants relative to the solvent control was determined by dividing the mean number of positive wells at each dose by the solvent control at baseline. The solvent control at baseline was calculated as the mean number of positive wells in the solvent control plus one standard deviation (SD). […]

HepG2 cells = assay: MTT cytotoxicity assay, HepG2; type: cell-based, human
Description: Human liver cancer HepG2 cell line (ATCC HB8065) and rat cardiomyoblast cell line H9c2 (ATCC-CRL1446) were purchased in ATCC (American Type Culture Collection, Manassas, VA, USA). The cells were cultured in standard conditions (37 °C, 5% CO2) in EMEM medium (ATCC, Manassas, VA, USA), supplemented with 10% FBS (Gibco, Waltham, MA, USA) and antibiotics (1% streptomycin/penicillin mixture, Sigma–Aldrich, Darmstadt, Germany) or DMEM high glucose (ATCC, Manassas, VA, USA) supplemented with 10% FBS (Gibco, Waltham, MA, USA) and antibiotics (1% streptomycin/penicillin mixture, Sigma–Aldrich, Darmstadt, Germany), respectively.
The MTT colorimetric assay was used to determine the cytotoxic effects of the KM-568 and DOX (Sigma–Aldrich, Darmstadt, Germany). Cells were seeded at a density of 1 × 10^4 in 96-well plates. Following overnight culture, the cells were then treated with KM-568 and DOX in concentration range 0.1–200 µM (hepatocytotoxicity) or 0.1–100 µM (cardiocytotoxicity). Following cell exposure to each drug for 24 h in 96 well plates, 10 µL MTT reagent (Sigma–Aldrich, Darmstadt, Germany) was added to each well; after 4 h of incubation (37 °C, 5% CO2), the medium was aspirated and formazan produced in cells appeared as dark crystals in the bottom of the wells. […] Then, absorbance was measured at 570 nm on a multi-well plate reader (Spectra Max iD3, Molecular Devices, San Jose, CA, USA). […]

[2] = Ames microplate format (MPF) assay, TA1537; settings: Salmonella typhimurium
Excerpt: as §1, §2
The test procedure provided by Xenometrix and described in detail elsewhere was followed. Bacterial strains were grown overnight (14–16 h) in exposure medium in a shaker incubator and then exposed to KM-568 in 24-well plates for 90 min at 37 °C with agitation. Final KM-568 concentrations in the assay were 0.1, 0.2, and 0.5 mM. After preincubation, the cultures were diluted in the indicator medium and the contents of each 24-well culture were transferred to 48 wells on a 384-well plate and incubated further for 48 h at 37 °C without agitation. After the exposure, the number of wells containing bacteria was scored for yellow wells. […] Pure DMSO was used as a negative control. All doses were performed in triplicate.
The fold increase of revertants relative to the solvent control was determined by dividing the mean number of positive wells at each dose by the solvent control at baseline. The solvent control at baseline was calculated as the mean number of positive wells in the solvent control plus one standard deviation (SD). When an increase of more than twofold relative to the baseline at more than one dose with a dose–response was observed, the sample was classified as positive, whereas when no response > 2 times the baseline and no dose–response was stated, the sample was classified as negative.

[3] = tested on: rat cerebral cortex NMDA receptor; assay: NMDA receptor radioligand binding ([3H]CGP39653); settings: 10 µM; antagonist radioligand
Description: In order to identify molecular mechanism of action, KM-568 was tested at 10 µM in three radioligand binding assays: rat cerebral cortex GABA receptor non-selective agonist radioligand, AMPA (α-amino-3-hydroxy-5-methyl-4-isoxazolepropionic acid) receptor agonist radioligand, and NMDA (N-methyl-D-aspartate) receptor antagonist radioligand as well as one functional assay involving a human recombinant TRPV1 receptor expressed in CHO cells (agonist and antagonist effects).
Tests were performed by Eurofins Cerep (Eurofins CEREP SA, Celle-Lévescault, France) as a commercial service. In radioligand assays, rat cerebral cortex GABA receptor as well as rat cerebral cortex AMPA (α-amino-3-hydroxy-5-methyl-4-isoxazolepropionic acid) and NMDA (N-methyl-D-aspartate) receptors with 10 nM [^3H]GABA, 8 nM [^3H]AMPA, and 5 nM [^3H]CGP39653, respectively, were used. The results were detected by means of scintillation counting. In functional assays, a human recombinant TRPV1 receptor expressed in Chinese hamster ovary (CHO) cells with 1 µM capsaicin or 30 nM capsazepine were used. Fluorimetry was used as a detection method.

C[C@H](O)CNC(=O)/C=C/c1ccccc1 [KM-568, S(+)-(2E)-N-(2-hydroxypropyl)-3-phenylprop-2-enamide]
ED50 (CF-1 mice; Mus musculus, ip): > 130 mg/kg | Bicuculine Results (protected/tested animals) (CF-1 mice; i.p., 130 mg/kg): 0/8 | ED50 (rats; Rattus norvegicus, ip, 0.5 h, given at time 0.5 h): 297 mg/kg | Results (protected/tested animals) (rats; i.p., 200 mg/kg, given at time 0 h): 8/8 | Results (protected/tested animals) (rats; i.p., 200 mg/kg, given at time 0.5 h): 1/8 | Results (protected/tested animals) (rats; i.p., 300 mg/kg, given at time 0.5 h): 5/8 | Results (protected/tested animals) (rats; i.p., 400 mg/kg, given at time 0.5 h): 7/8 | ED50, pilocarpine-induced status epilepticus (rats; i.p., given at time 0.5 h): 279.45 (212.61–344.62) mg/kg | ED97, pilocarpine-induced status epilepticus (rats; i.p., given at time 0.5 h): 498.2 (378.3–1526.9) mg/kg | fold induction at 90 min, 0.1 mM [1]: 0.8 | fold induction at 90 min, 0.2 mM [1]: 0.7 | fold induction at 90 min, 0.5 mM [1]: 1 | percent of living cells (HepG2 cells; HepG2, 24 h incubation with 100 µM): ~100% | cytotoxic effect, MTT assay (HepG2 cells; HepG2, up to 100 µM, 24 h): no cytotoxic effect | fold induction at 90 min, 0.1 mM [2]: 1 | fold induction at 90 min, 0.2 mM [2]: 0.7 | fold induction at 90 min, 0.5 mM [2]: 0.7 | Effect in NMDA receptor radioligand binding assay [3]: No significant effects
